# System: U937 cells
# Assay: AML chemotherapy resistance assay (XTT cell viability), U937
# Type: cell-based, human
# Procedure: Cell viability was determined using a cell proliferation kit (Roche), which colors viable cells using the tetrazolium salt XTT.
# 2×10^4 per 200 μl cells were seeded in 96-microwell flat bottom plates. After 24 hours, the tested compound(s) (e.g., AS101, ARA-C, DTNB, anti-VLA-4 antibody) was added, and the cells were incubated overnight with the tested compound(s). The XTT solution was then added and the cells were incubated for 4 hours at 37° C. Cell viability was than evaluated by measuring absorbance at 450 nm using a Microplate Spectrophotometer (Spectra MAX Plus, Molecular Devices).
# The role of VLA protein in fibronectin-induced resistance to chemotherapy was investigated by performing a chemotherapy resistance assay, as described hereinabove, with anti-VLA-4 and anti-VLA-5 antibodies. U937 cells were grown in fibronectin- and BSA-coated plates. Antibodies were added at a concentration of 1 μg/ml.
structure (smiles),measurement,setting,value
"Cl[TeH]1(Cl)(Cl)OCCO1 [AS101, ammonium trichloro(dioxyethylene-O,O′)tellurate]",effect on viability of cells exposed to ARA-C,"U937, BSA-coated plates",neither AS101 nor anti-VLA-4 antibodies had an effect
same,additional sensitization to ARA-C in cells sensitized by anti-VLA-4 antibodies,"U937, fibronectin-coated plates",no additional effect
same,sensitization to ARA-C-induced cell death,"U937, fibronectin-coated plates, 0.5 or 1 μg/ml AS101",sensitized U937 cells to ARA-C-induced cell death on fibronectin-coated plates
same,"effect on viability of cells exposed to ARA-C, alone or in combination",U937 on BSA,no effect either alone or in combination
same,"sensitization to ARA-C, combination of AS101 and DTNB vs either alone",U937 on fibronectin,did not sensitize U937 cells grown on fibronectin to a greater degree than did either AS101 or DTNB alone
